In patent publication US12486259B2, “FXR agonist having pyrazine structure, and preparation method and use” (JIANGSU TASLY DIYI PHARMACEUTICAL CO., LTD., priority 2020, dated 2025):

How the values were obtained:
[1] = target: T1, GST-labeled recombinant human FXR protein (Homo sapiens, UniProt Q96RI1); assay: Agonistic activity on FXR receptor (GST-FXR / SRC-1 bead assay, protein level); assay type: biochemical; conditions: for EC50: 0.4 nM FXR, 30 nM SRC-1, protein level; for FXR agonistic activity at protein level (in words): judgement on Table 1 results
T1 construct: purchased Invitroren (so in the source)
T1 sequence (Q96RI1 262-486 limits assumed): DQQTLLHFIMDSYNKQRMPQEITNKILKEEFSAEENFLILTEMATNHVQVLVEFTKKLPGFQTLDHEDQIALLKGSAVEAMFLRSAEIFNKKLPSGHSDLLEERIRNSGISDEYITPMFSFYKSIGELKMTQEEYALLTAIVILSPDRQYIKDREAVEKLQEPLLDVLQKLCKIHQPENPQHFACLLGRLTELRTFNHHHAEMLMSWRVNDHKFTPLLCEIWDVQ
T1 sequence (Q15788 676-700 partner limits assumed): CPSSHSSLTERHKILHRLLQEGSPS
Protocol: Experimental procedures: FXR (GST-labeled recombinant human FXR protein, manufacturer: Invitroren, Item number: PV4835) and SRC-1 (steroid receptor co-activator-1) are thawed on ice. Three solutions of ABC are prepared by a buffer solution, solution A, 0.4 n M FXR and 30 nM SRC-1; solution B, 10 ug/ml Acceptor Beads; solution C, 10 ug/ml Donor Beads. Solution A is added to the plate at 15 uL per well. It is incubated at room temperature for 1 hour. Solution B is added to the plate at 7.5 uL per well. It is incubated at room temperature for 1 hour. Solution C is added to the plate at 7.5 uL per well. It is incubated at room temperature for 1 hour. It is read from the microplate reader Envision. The data are curve fitted by using Prism 5.0 to calculate the EC50.

[2] = system: C57/BL6 mice fed MCD diet; assay: Pharmacodynamic test in methionine-choline deficient diet (MCD) model of non-alcoholic fatty liver disease; assay type: in vivo; conditions: MCD mice, obeticholic acid 40 mpk
Protocol: Animal strain: C57/BL6, Animal Grade: SPF Grade, Gender: male, Animal Age: 8 weeks old, Animals Received Date: 2018 Sep. 28, Animal Source: Shanghai Lingchang Biotechnology Co. Ltd., Animal Certificate No: SCXK (Shanghai)2013-0018 2013001836799, Mouse feeding Environment: temperature 20-26° C., humidity 40-70%, 12 hour day and night cycle.
5% Solutol HS15/Normal saline: after Solutol HS15 (polyethylene glycol 15 hydroxystearate solubilizer) is dissolved in a water bath at 37° C., 5 ml of it is dissolved in 100 ml of normal saline, thoroughly stirred for later use.
Obeticholic acid/5% Solutol HS15/Normal saline: 0.15 ml Solutol HS15 is added to accurately weighed 12 mg obeticholic acid to fully dissolve it, and 2.85 ml normal saline is added, vigorously mixed and dissolved by the ultrasound. • TM-01 Group/5% Solutol HS15/Normal saline: 2.5 ml of 6 mg/ml TM-01 suspension is taken, 2.5 ml of 5% Solutol HS15/normal saline is added, and the mixture is mixed well. • TM-02 Group/5% Solutol HS15/Normal saline: 2.5 ml of 6 mg/ml TM-02 suspension is taken, 2.5 ml of 5% Solutol HS15/normal saline is added, and the mixture is mixed well. • TM-06 Group/5% Solutol HS15/Normal saline: 2.5 ml of 6 mg/ml TM-06 suspension is taken, 2.5 ml of 5% Solutol HS15/Normal saline is added, and the mixture is mixed well. • TM-09 Group/5% Solutol HS15/Normal saline: 2.5 ml of 6 mg/ml TM-09 suspension is taken, 2.5 ml of 5% Solutol HS15/Normal saline is added, and the mixture is mixed well.
Menstruum and test compounds are administered by gavage at a dose volume of 10 ml/kg;
After reaching the animal house, 70 8-week-old C57/BL6 mice are fed adaptively and randomly divided into 7 groups according to body weight after the average body weight reaches 23 g. They are given the model feed. The first group receives the control diet MCS and the remaining groups receive the MCD diet, while each group of mice receives compound treatment as follows: • Group 1. Control Group: MCS, menstruum, administered once daily by gavage; • Group 2. Model Group: MCD, menstruum, administered once daily by gavage; • Group 3. Obeticholic acid group: MCD, 40 mpk obeticholic acid, administered once daily by gavage; • Group 4. TM-01 Group: MCD, 30 mpk TM-01, administered once daily by gavage; • Group 5. TM-02 Group: MCD, 30 mpk TM-02, administered once daily by gavage; • Group 6. TM-06 Group: MCD, 30 mpk TM-06, administered once daily by gavage; • Group 7. TM-09 Group: MCD, 30 mpk TM-09, administered once daily by gavage; 2.4 Experimental Methods
Body weight and food intake are measured weekly during the experiment. Twenty-one days after administration, tail tips are bled with microcapillaries for AST, ALT measurements. Twenty-eight days after administration, mice are terminated, hearts are bled, and liver tissues are collected and weighed. One portion is snap frozen with liquid nitrogen for subsequent analysis and the other portion are fixed for pathological analysis.
Mouse blood is centrifuged at 5000 rpm for 10 minutes and supernatants are collected for determination of TG (triglycerides), TC (total cholesterol), HDL (high density lipoprotein), LDL (low density lipoprotein), AST (aspartate aminotransferase) and ALT (alanine aminotransferase).
AST and ALT after administration for three and four weeks are determined according to the instructions of kit. The blood lipid index 4 weeks after administration is sent to Adicon Medical Laboratory Co. Ltd. for detection.
The livers are removed from −80° C., homogenized in PBS (phosphate buffered saline), extracted with chloroform methanol organic phase, and subjected to TC and TG assays using the kit, normalized for protein content.
Four weeks after administration, the mice are anesthetized. The heart is bled, the liver is isolated and weighed. The right lobe is snapfrozen with liquid nitrogen and stored at −80° C. for liver lipid analysis. The left lobe is isolated and fixed in 10% formalin for subsequent HE and Sirius Red staining. […]

in vitro = conditions: human; for Papp A→B: Caco-2, Papp A-B; for recovery: Caco-2, Recovery rate A-B
Protocol: The bi-directional transport of target compounds from apical side (AP) to basolateral side (BL) and from BL side to AP side is studied by using human colon adenocarcinoma cell line Caco-2 monolayer model. The transport parameters, apparent permeability coefficient (Papp) and efflux ratio are calculated by quantitative analysis with high performance liquid chromatography (HPLC).

[3] = blood, 3 weeks, TM 30 mpk, gavage
[4] = blood, 4 weeks, TM 30 mpk, gavage
[5] = blood, after 4 weeks, TM 30 mpk
[6] = liver, after 4 weeks, TM 30 mpk

Question: For OC1(c2cnc(OCc3c(-c4c(Cl)cccc4Cl)noc3C3CC3)cn2)CC(c2cccc(Br)c2)C1 (centres unmarked) [TM-03, 3-(3-bromophenyl)-1-(5-((5-cyclopropyl-3-(2,6-dichlorophenyl)isoxazol-4-yl)methoxy)pyrazine-2-yl) cyclobutanol], which EC50 [1] is on record?
Answer: Its EC50 is 0.24 µM.

Question: Which EC50 [1] does the source give for OC1(c2cnc(OCc3c(-c4c(Cl)cccc4Cl)noc3C3CC3)cn2)CC(c2cccc(Sc3ccccc3)c2)C1 (centres unmarked) [TM-05, 1-(5-((5-cyclopropyl-3-(2,6-dichlorophenyl)isoxazol-4-yl)methoxy)pyrazine-2-yl)-3-(3-(phenylthio)phenyl) cyclobutanol] here?
Answer: Its EC50 is 5.01 µM.

Question: And the “FXR agonistic activity at protein level (in words)” value (from here on “FXR agonistic activity”) [1]?
Answer: Its value is “poor activity”.

Question: With CC[C@H]1[C@@H](O)[C@@H]2[C@H](CC[C@]3(C)[C@@H]([C@H](C)CCC(=O)O)CC[C@@H]23)[C@@]2(C)CC[C@@H](O)C[C@@H]12 [obeticholic acid, reference compound] as the compound, how does the “Weight, 0 week” value ([2]; 0 week, TM compounds 30 mpk, once daily by gavage) read?
Answer: The value was 23.72 ± 0.46 g.

Question: What about the “Food intake, 1 week” value ([2]; 1 week, TM 30 mpk, gavage) of the same compound?
Answer: Its value is 2.992 ± 0.396 g.

Question: And the “Weight, 1 week” value ([2]; 1 week, TM compounds 30 mpk, once daily by gavage)?
Answer: The value was 21.28 ± 0.42 g.

Question: What about the “Food intake, 2 weeks” value ([2]; 2 weeks, TM 30 mpk, gavage) of the same compound?
Answer: Its value is 2.945 ± 0.315 g.

Question: What about the “Weight, 2 weeks” value ([2]; 2 weeks, TM compounds 30 mpk, once daily by gavage) of the same compound?
Answer: Its value is 18.97 ± 0.41 g.

Question: And the “Food intake, 3 weeks” value ([2]; 3 weeks, TM 30 mpk, gavage)?
Answer: The value was 2.092 ± 0.320 g.

Question: What about the “Weight, 3 weeks” value ([2]; 3 weeks, TM compounds 30 mpk, once daily by gavage) of the same compound?
Answer: Its value is 17.60 ± 0.35 g.

Question: And the “Food intake, 4 weeks” value ([2]; 4 weeks, TM 30 mpk, gavage)?
Answer: Its value is 2.073 ± 0.031 g.

Question: And the “Weight, 4 week” value ([2]; 4 weeks, TM compounds 30 mpk, once daily by gavage)?
Answer: The value was 15.72 ± 0.35 g.

Question: What about the liver weight ([2]; after 4 weeks, TM 30 mpk) of the same compound?
Answer: Its liver weight is 0.90 ± 0.03 g.

Question: And the liver/body weight ([2]; after 4 weeks, TM 30 mpk)?
Answer: The liver/body weight was 5.76 ± 0.26 %.

Question: What about the “ALT, 3 weeks” value [2, 3] of the same compound?
Answer: The value was 323.00 ± 37.79 U/L.

Question: What about the “AST, 3 weeks” value [2, 3] of the same compound?
Answer: The value was 197.24 ± 21.54 U/L.

Question: What about the “ALT, 4 weeks” value [2, 4] of the same compound?
Answer: The value was 93.37 ± 10.36 U/L.

Question: What about the “AST, 4 weeks” value [2, 4] of the same compound?
Answer: Its value is 126.59 ± 20.25 U/L.

Question: What about the “HDL (blood lipid)” value [2, 5] of the same compound?
Answer: The value was 0.55 ± 0.01 mmol/L.

Question: What about the “LDL (blood lipid)” value [2, 5] of the same compound?
Answer: The value was 2.80 ± 0.03 mmol/L.

Question: And the “TC (blood lipid)” value [2, 5]?
Answer: The value was 0.86 ± 0.04 mmol/L.

Question: And the “TG (blood lipid)” value [2, 5]?
Answer: The value was 0.56 ± 0.02 mmol/L.

Question: What about the HE score ([2]; liver pathology score (Table 12 criteria), 4 weeks, TM 30 mpk) of the same compound?
Answer: The HE score was 2.6.

Question: What about the “Sirius red staining area” value ([2]; liver, 4 weeks, TM 30 mpk) of the same compound?
Answer: Its value is 0.344 ± 0.057%.

Question: What about the liver TC [2, 6] of the same compound?
Answer: The liver TC was 35.7 ± 3.38 µmol/g protein.

Question: What about the liver TG [2, 6] of the same compound?
Answer: The liver TG was 298 ± 36.2 µmol/g protein.

Question: For CS(=O)(=O)c1cccc(C2CC(O)(c3cnc(OCc4c(-c5c(Cl)cccc5Cl)noc4C4CC4)cn3)C2)c1 (centres unmarked) [TM-04, 1-(5-((5-cyclopropyl-3-(2,6-dichlorophenyl)isoxazol-4-yl)methoxy)pyrazine-2-yl)-3-(3-(methylsulfonyl)phenyl) cyclobutanol], which EC50 [1] is on record?
Answer: The EC50 was 1.35 µM.

Question: Which EC50 [1] does the source give for O=C(O)c1cccc(C2CC(O)(c3cnc(OCc4c(-c5c(Cl)cccc5Cl)noc4-c4ccccc4)cn3)C2)c1 (centres unmarked) [TM-07, 3-(3-(5-(5-phenyl-3-(2,6-dichlorophenyl)isoxazole-4-ylmethoxy)-2-pyrazine)-1-hydroxycyclobutane) benzoic acid] here?
Answer: The EC50 was 4.21 µM.

Question: And the “FXR agonistic activity” value [1]?
Answer: The value was “poor activity”.

Question: For O=C(O)c1cccc(N2CC(O)(c3ccc(OCc4c(-c5c(Cl)cccc5Cl)noc4C4CC4)cc3Cl)C2)c1 [Compound M2, reference compound], which EC50 [1] is on record?
Answer: Its EC50 is 1.8 µM.

Question: What about the “FXR agonistic activity” value [1] of the same compound?
Answer: The value was “less active than the compounds of the present invention”.

Question: Which results are given for CC(C)(C)NCC(O)COc1cccc2c1CC(O)C(O)C2 (centres unmarked) [Nadolol, reference compound]?
Answer: Papp A→B (in vitro): 0.07 ×10⁻⁶ cm/s; Papp A→B (in vitro; Average): 0.07 ×10⁻⁶ cm/s; Papp A→B (in vitro; Sample-01): 0.07 ×10⁻⁶ cm/s; Papp A→B (in vitro; Sample-02): 0.06 ×10⁻⁶ cm/s; recovery (in vitro; Average): 89.8%; recovery (in vitro; Sample-01): 91.5%; recovery (in vitro; Sample-02): 88%

Question: For Cc1cc(C(=O)O)cc(C2CC(O)(c3cnc(OCc4c(-c5c(Cl)cccc5Cl)noc4-c4ccccc4)cn3)C2)c1 (centres unmarked) [TM-10, 3-(3-(5-((3-(2,6-dichlorophenyl)-5-phenylisoxazol-4-yl)methoxy)pyrazine-2-yl)-3-hydroxycyclobutyl)-5-methyl benzoic acid], which EC50 [1] is on record?
Answer: Its EC50 is 5.66 µM.

Question: And the “FXR agonistic activity” value [1]?
Answer: Its value is “poor activity”.

Question: For COCCc1ccc(OCC(O)CNC(C)C)cc1 (centres unmarked) [Metoprolol, reference compound], which Papp A→B (in vitro) is on record?
Answer: The Papp A→B was 18.1 ×10⁻⁶ cm/s.

Question: What about the Papp A→B (in vitro; Average) of the same compound?
Answer: Its Papp A→B is 18.1 ×10⁻⁶ cm/s.

Question: And the Papp A→B (in vitro; Sample-01)?
Answer: The Papp A→B was 19.5 ×10⁻⁶ cm/s.

Question: And the Papp A→B (in vitro; Sample-02)?
Answer: The Papp A→B was 16.8 ×10⁻⁶ cm/s.

Question: What about the recovery (in vitro; Average) of the same compound?
Answer: The recovery was 93.8%.

Question: And the recovery (in vitro; Sample-01)?
Answer: The recovery was 93.2%.

Question: What about the recovery (in vitro; Sample-02) of the same compound?
Answer: The recovery was 94.3%.
